We go through 18 compounds from PMC5776679 (Journal of medicinal chemistry, 2016).

The conditions of series [1]: clinical trials; cited from earlier work.
For series [2] the following is noted: rats; cited from earlier work.
The conditions of series [3]: monkeys; cited from earlier work.
A further series concerns HBV. The conditions noted are these: therapeutic index at the EC50, HepG2.
A further series has as its system HIV-1. The conditions noted are these: for EC50: read-out: EC50 (PBMCs) HIV-1.
In series [4] the test system is HepG2. Description: Cytotoxicity in uninfected HepG2 cells. The settings on record: read-out: CC50 (HepG2), concentration required to reduce the viability of uninfected cells by 50%, triplicate.
A further series concerns PBMCs. The experiment in a line: Cytotoxicity in uninfected PBMCs. The settings on record: read-out: CC50 (PBMCs), concentration required to reduce the viability of uninfected cells by 50%, triplicate.
The nature of the next series: in vitro. The settings on record: human.
For series [5], the system named is HepG2. The conditions noted are these: human.
For series [6] the following is noted: phase I, preliminary data on Chimerix's website; cited from earlier work.
The next series is described as follows: Stability in PBS. The settings on record: all examined media except human serum.
Setting [7] is: therapeutic index at the EC50, PBMCs.

Read-outs that look alike come from different tables or passages of the source.

Consider `CC(C)OC(=O)[C@H](C)N[P@](=O)(CO[C@H](C)Cn1cnc2c(N)ncnc21)Oc1ccccc1` [TAF, tenofovir-alafenamide], for which the nephrotoxicity entry in series [1] is “little to no nephrotoxicity”.

Usually bioavailability stands for dose-corrected exposure relative to a reference, in per cent. Regarding `Nc1ncnc2c1ncn2CCOCP(=O)(O)O` [adefovir], the bioavailability in series [2] was 8–11%; in [3], below 1%.

For `CCCCCCCCCCCCCCCCSSCCOP(=O)(O)CO[C@H](C)Cn1cnc2c(N)ncnc21.N` [12d, 2-(Hexadecyldisulfanyl)ethyl Hydrogen ((((R)-1-(6-Amino-9H-purin-9-yl)propan-2-yl)oxy)methyl)phosphonate], in the series with HBV, the “TI (CC50/EC50) HBV” value was above 1200.

For the compound `C[C@H](Cn1cnc2c(N)ncnc21)OCP(=O)(O)OCCSSCCO` [DTE–TFV, 2-((2-Hydroxyethyl)disulfanyl)ethyl Hydrogen ((((R)-1-(6-Amino-9H-purin-9-yl)propan-2-yl)oxy)methyl)phosphonate], the “TI (CC50/EC50) HIV-1” value in the series with HIV-1 is on record as above 62.1. Moreover, the “TI (CC50/EC50) HBV” value with HBV is on record as above 8.6.

Take `CCCCCCCCCCCCSSCCOP(=O)(O)CO[C@H](C)Cn1cnc2c(N)ncnc21.N` [12b, 2-(Dodecyldisulfanyl)ethyl Hydrogen ((((R)-1-(6-Amino-9H-purin-9-yl)propan-2-yl)oxy)methyl)phosphonate]: the “TI (CC50/EC50) HBV” value in the series with HBV is given as above 30.

In general, EC50 refers to the concentration that produces a half-maximal response. “2-(Octadecyldisulfanyl)ethyl (2-(Octadecylsulfinothioyl)ethyl) ((((R)-1-(6-Amino-9H-purin-9-yl)propan-2-yl)oxy)methyl)-phosphonate [13e]”: in the series on HIV-1, the “TI (CC50/EC50) HIV-1” value was above 76 and the concentration for a half-maximal effect (EC50) is 0.331 µM. In addition, the CC50 in the series with HepG2 [4] was above 25 µM. For the same compound, the “TI (CC50/EC50) HBV” value with HBV is recorded as above 1. In the series on PBMCs, the CC50 was above 25 µM.

In the case of “2-(Hexadecyldisulfanyl)ethyl Octyl ((((R)-1-(6-Amino-9H-purin-9-yl)propan-2-yl)oxy)methyl)phosphonate [compound 22]”, in the series with HIV-1, the “TI (CC50/EC50) HIV-1” value is on record as above 50 and the EC50 was 0.911 µM.

On to `C[C@H](Cn1cnc2c(N)ncnc21)OCP(=O)(O)O` [TFV, Tenofovir, reference compound], for which the “TI (CC50/EC50) HIV-1” value in the series on HIV-1 is given as above 300.

Regarding “2-(Decyldisulfanyl)ethyl (2-(Decylsulfinothioyl)ethyl) ((((R)-1-(6-Amino-9H-purin-9-yl)propan-2-yl)oxy)methyl)phosphonate [13a]”, in the series on HIV-1, the “TI (CC50/EC50) HIV-1” value is above 287. Besides, the 50% effective concentration (EC50) with HIV-1 came to 0.349 µM. Besides, the CC50 in the series with HepG2 [4] and with PBMCs was above 100 µM throughout. In addition, the “TI (CC50/EC50) HBV” value in the series with HBV was above 1.

In the case of `C[C@H](Cn1cnc2c(N)ncnc21)OCP(=O)(O)OCCS` [compound 9, 2-Mercaptoethyl Hydrogen ((((R)-1-(6-Amino-9H-purin-9-yl)-propan-2yl)oxy)methyl)phosphonate], in the series on HIV-1, the “TI (CC50/EC50) HIV-1” value is reported as above 5.38. The “TI (CC50/EC50) HBV” value in the series with HBV was above 2.4.

Consider `CCCCCCCCCCCCCCCCCCSSCCOP(=O)(O)CO[C@H](C)Cn1cnc2c(N)ncnc21.N` [12e, 2-(Octadecyldisulfanyl)ethyl Hydrogen ((((R)-1-(6-Amino-9H-purin-9-yl)propan-2-yl)oxy)methyl)phosphonate], for which the “TI (CC50/EC50) HBV” value in the series on HBV was above 50.

“2-(Dodecyldisulfanyl)ethyl (2-(Dodecylsulfinothioyl)ethyl) ((((R)-1-(6-Amino-9H-purin-9-yl)propan-2-yl)oxy)methyl)phosphonate [13b]”: the “TI (CC50/EC50) HIV-1” value in the series on HIV-1 is reported as above 85.0. In the series on HIV-1, the EC50 stood at 1.18 µM. In addition, the CC50 in the series with HepG2 [4] and in the series with PBMCs was above 100 µM in each case. Besides, the “TI (CC50/EC50) HBV” value with HBV is given as above 1.

As to `CC(C)OC(=O)OCOP(=O)(CO[C@H](C)Cn1cnc2c(N)ncnc21)OCOC(=O)OC(C)C.O=C(O)/C=C/C(=O)O` [TDF, tenofovir disoproxil fumarate], the CC50 in “in vitro” came to 29.2 µM; in the series on HepG2 [5], 64.5 µM.

“2-(Hexadecyldisulfanyl)ethyl (2-(Hexadecylsulfinothioyl)ethyl) ((((R)-1-(6-Amino-9H-purin-9-yl)propan-2-yl)oxy)methyl)-phosphonate [13d]”: in the series on HIV-1, the “TI (CC50/EC50) HIV-1” value was 4.0 and the EC50 was 6.32 µM. In addition, in the series with HepG2 [4], the CC50 was above 25 µM. For the same compound, the “TI (CC50/EC50) HBV” value in the series on HBV is on record as above 1. The CC50 in the series on PBMCs is above 25 µM.

Take `CCCCCCCCCCCCCCCCOCCCOP(=O)(O)CO[C@H](C)Cn1cnc2c(N)ncnc21` [compound 1, hexadecyloxypropyl-tenofovir, reference compound]: in the series with HIV-1, the “TI (CC50/EC50) HIV-1” value is recorded as above 5000. Also, the tolerability entry in [6] was “well-tolerated”.

With `CCCCCCCCCCSSCCOP(=O)(O)CO[C@H](C)Cn1cnc2c(N)ncnc21.N` [12a, 2-(Decyldisulfanyl)ethyl Hydrogen ((((R)-1-(6-Amino-9H-purin-9-yl)propan-2-yl)oxy)methyl)phosphonate], the “TI (CC50/EC50) HIV-1” value with HIV-1 (setting [7]) was above 590. Besides, in the series on HBV, the “TI (CC50/EC50) HBV” value was above 1.

Turning to “2-(Tetradecyldisulfanyl)ethyl (2-(Tetradecylsulfinothioyl)ethyl) ((((R)-1-(6-Amino-9H-purin-9-yl)propan-2-yl)oxy)methyl)-phosphonate [13c]”, the “TI (CC50/EC50) HIV-1” value in the series on HIV-1 is on record as above 529. Besides, in the series on HIV-1, the 50% effective concentration (EC50) worked out at 0.189 µM. For the same compound, the CC50 in the series with HepG2 [4] and in the series on PBMCs was above 100 µM each time. Besides, in the series on HBV, the “TI (CC50/EC50) HBV” value is given as above 1.

`CCCCCCCCCCCCCCSSCCOP(=O)(O)CO[C@H](C)Cn1cnc2c(N)ncnc21.N` [12c, 2-(Tetradecyldisulfanyl)ethyl Hydrogen ((((R)-1-(6-Amino-9H-purin-9-yl)propan-2-yl)oxy)methyl)phosphonate]: in the series on HIV-1 (setting [7]), the “TI (CC50/EC50) HIV-1” value amounted to 28000. Also, the “TI (CC50/EC50) HBV” value in the series on HBV was above 56. The “fold stability increase over 12d” value in the series “Stability in PBS” is recorded as around 2 fold.
